Measured values: the supplement of paper PMC10307832

What was measured:
Experiment in all cases: relative viability (nuclei count vs DMSO), 5 days (fraction); higher = more cells survive
[1] = compound: CC1=C(C(=NN1)C)CC2=C(C3=C(S2)N(C(=O)N(C3=O)C)CC(C)C)C(=O)N4C[C@@H](CO4)O + CC(C)C[C@H](NC(=O)[C@H](Cc1ccccc1)NC(=O)c1cnccn1)B(O)O [Bortezomib] (partner 0.002 µM)
How it was run: (§1)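 Values are medians from duplicate plates. Each reflects relative viability, defined as the nuclei count of treated wells over that of vehicle wells. Lung cancer cell lines in 1536-well plates were pin-tool dosed one day after seeding with one drug alone or with a fixed anchor-drug dose plus five library-drug doses (not always all listed) in √10 steps, then fixed, stained and imaged at 4× after 5 days.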

[2] = compound: CC1=C(C(=NN1)C)CC2=C(C3=C(S2)N(C(=O)N(C3=O)C)CC(C)C)C(=O)N4C[C@@H](CO4)O + Nc1ncn([C@H]2C[C@H](O)[C@@H](CO)O2)c(=O)n1 [Decitabine] (partner 2 µM)
How it was run: as §1

IDH-C35 + Luminespib = compound: Cc1ccccc1C(C(=O)NC1CCCCC1)N(C(=O)Cn1ccnc1C)c1cccc(F)c1 [IDH-C35] + CCNC(=O)c1noc(-c2cc(C(C)C)c(O)cc2O)c1-c1ccc(CN2CCOCC2)cc1 [Luminespib] (partner 0.01 µM)
How it was run: as §1

IDH-C35 + Dasatinib = compound: Cc1ccccc1C(C(=O)NC1CCCCC1)N(C(=O)Cn1ccnc1C)c1cccc(F)c1 [IDH-C35] + Cc1nc(Nc2ncc(C(=O)Nc3c(C)cccc3Cl)s2)cc(N2CCN(CCO)CC2)n1 [Dasatinib] (partner 0.075 µM)
How it was run: as §1

For NCI-H3122, which relative viability ([1]; first compound 0.0025 µM) is on record?
Its relative viability is 0.963.

And the relative viability ([1]; first compound 0.007906 µM)?
The relative viability was 0.978.

What about the relative viability ([1]; first compound 0.025 µM) of the same cell line?
Its relative viability is 1.

What about the relative viability ([1]; first compound 0.07906 µM) of the same cell line?
Its relative viability is 0.99.

And the relative viability ([1]; first compound 0.25 µM)?
Its relative viability is 1.02.

And the relative viability ([2]; first compound 0.0025 µM)?
Its relative viability is 0.393.

And the relative viability ([2]; first compound 0.007906 µM)?
Its relative viability is 0.454.

And the relative viability ([2]; first compound 0.025 µM)?
Its relative viability is 0.47.

And the relative viability ([2]; first compound 0.07906 µM)?
Its relative viability is 0.448.

What about the relative viability ([2]; first compound 0.25 µM) of the same cell line?
The relative viability was 0.389.

What about the relative viability (IDH-C35 + Luminespib; first compound 0.08 µM) of the same cell line?
Its relative viability is 0.0958.

And the relative viability (IDH-C35 + Luminespib; first compound 0.253 µM)?
The relative viability was 0.105.

And the relative viability (IDH-C35 + Luminespib; first compound 0.8 µM)?
The relative viability was 0.0707.

What about the relative viability (IDH-C35 + Luminespib; first compound 2.53 µM) of the same cell line?
Its relative viability is 0.106.

And the relative viability (IDH-C35 + Luminespib; first compound 8 µM)?
Its relative viability is 0.0868.

What about the relative viability (IDH-C35 + Dasatinib; first compound 0.08 µM) of the same cell line?
Its relative viability is 0.725.

What about the relative viability (IDH-C35 + Dasatinib; first compound 0.253 µM) of the same cell line?
Its relative viability is 0.487.

What about the relative viability (IDH-C35 + Dasatinib; first compound 0.8 µM) of the same cell line?
Its relative viability is 0.56.

What about the relative viability (IDH-C35 + Dasatinib; first compound 2.53 µM) of the same cell line?
The relative viability was 0.865.

And the relative viability (IDH-C35 + Dasatinib; first compound 8 µM)?
Its relative viability is 0.777.

Which results are given for PC-3 [JPC-3]?
relative viability ([1]; first compound 0.0025 µM): 0.949; relative viability ([1]; first compound 0.007906 µM): 0.869; relative viability ([1]; first compound 0.025 µM): 0.886; relative viability ([1]; first compound 0.07906 µM): 0.79; relative viability ([1]; first compound 0.25 µM): 0.786; relative viability ([2]; first compound 0.0025 µM): 0.843; relative viability ([2]; first compound 0.007906 µM): 0.787; relative viability ([2]; first compound 0.025 µM): 0.9; relative viability ([2]; first compound 0.07906 µM): 0.843; relative viability ([2]; first compound 0.25 µM): 0.996; relative viability (IDH-C35 + Luminespib; first compound 0.08 µM): 0.737; relative viability (IDH-C35 + Luminespib; first compound 0.253 µM): 0.596; relative viability (IDH-C35 + Luminespib; first compound 0.8 µM): 0.728; relative viability (IDH-C35 + Luminespib; first compound 2.53 µM): 0.771; relative viability (IDH-C35 + Luminespib; first compound 8 µM): 0.692; relative viability (IDH-C35 + Dasatinib; first compound 0.08 µM): 1; relative viability (IDH-C35 + Dasatinib; first compound 0.253 µM): 0.923; relative viability (IDH-C35 + Dasatinib; first compound 0.8 µM): 1.02; relative viability (IDH-C35 + Dasatinib; first compound 2.53 µM): 0.989; relative viability (IDH-C35 + Dasatinib; first compound 8 µM): 0.972

Which relative viability ([1]; first compound 0.0025 µM) does the source give for PC-14 here?
Its relative viability is 0.841.

And the relative viability ([1]; first compound 0.007906 µM)?
The relative viability was 0.86.

And the relative viability ([1]; first compound 0.025 µM)?
The relative viability was 0.896.

And the relative viability ([1]; first compound 0.07906 µM)?
Its relative viability is 0.972.

And the relative viability ([1]; first compound 0.25 µM)?
The relative viability was 1.03.

And the relative viability ([2]; first compound 0.0025 µM)?
The relative viability was 0.223.

What about the relative viability ([2]; first compound 0.007906 µM) of the same cell line?
The relative viability was 0.27.

What about the relative viability ([2]; first compound 0.025 µM) of the same cell line?
The relative viability was 0.215.

What about the relative viability ([2]; first compound 0.07906 µM) of the same cell line?
The relative viability was 0.199.

And the relative viability ([2]; first compound 0.25 µM)?
The relative viability was 0.275.

What about the relative viability (IDH-C35 + Luminespib; first compound 0.08 µM) of the same cell line?
Its relative viability is 0.148.

And the relative viability (IDH-C35 + Luminespib; first compound 0.253 µM)?
The relative viability was 0.154.

What about the relative viability (IDH-C35 + Luminespib; first compound 0.8 µM) of the same cell line?
Its relative viability is 0.177.

And the relative viability (IDH-C35 + Luminespib; first compound 2.53 µM)?
The relative viability was 0.243.

What about the relative viability (IDH-C35 + Luminespib; first compound 8 µM) of the same cell line?
Its relative viability is 0.198.

And the relative viability (IDH-C35 + Dasatinib; first compound 0.08 µM)?
Its relative viability is 0.302.

And the relative viability (IDH-C35 + Dasatinib; first compound 0.253 µM)?
The relative viability was 0.277.

And the relative viability (IDH-C35 + Dasatinib; first compound 0.8 µM)?
Its relative viability is 0.271.

And the relative viability (IDH-C35 + Dasatinib; first compound 2.53 µM)?
Its relative viability is 0.247.

What about the relative viability (IDH-C35 + Dasatinib; first compound 8 µM) of the same cell line?
The relative viability was 0.221.

For RERF-LC-KJ, which relative viability ([1]; first compound 0.0025 µM) is on record?
Its relative viability is 1.01.

And the relative viability ([1]; first compound 0.007906 µM)?
Its relative viability is 1.23.

What about the relative viability ([1]; first compound 0.025 µM) of the same cell line?
Its relative viability is 1.22.

And the relative viability ([1]; first compound 0.07906 µM)?
Its relative viability is 1.06.

What about the relative viability ([1]; first compound 0.25 µM) of the same cell line?
The relative viability was 1.21.

And the relative viability ([2]; first compound 0.0025 µM)?
The relative viability was 0.852.

And the relative viability ([2]; first compound 0.007906 µM)?
The relative viability was 0.739.

And the relative viability ([2]; first compound 0.025 µM)?
Its relative viability is 0.766.

And the relative viability ([2]; first compound 0.07906 µM)?
Its relative viability is 0.656.

What about the relative viability ([2]; first compound 0.25 µM) of the same cell line?
Its relative viability is 0.678.

What about the relative viability (IDH-C35 + Luminespib; first compound 0.08 µM) of the same cell line?
Its relative viability is 1.21.

And the relative viability (IDH-C35 + Luminespib; first compound 0.253 µM)?
Its relative viability is 1.34.

And the relative viability (IDH-C35 + Luminespib; first compound 0.8 µM)?
Its relative viability is 1.22.

And the relative viability (IDH-C35 + Luminespib; first compound 2.53 µM)?
Its relative viability is 1.17.

And the relative viability (IDH-C35 + Luminespib; first compound 8 µM)?
Its relative viability is 1.19.

What about the relative viability (IDH-C35 + Dasatinib; first compound 0.08 µM) of the same cell line?
Its relative viability is 0.894.

What about the relative viability (IDH-C35 + Dasatinib; first compound 0.253 µM) of the same cell line?
Its relative viability is 0.76.

And the relative viability (IDH-C35 + Dasatinib; first compound 0.8 µM)?
The relative viability was 0.898.

And the relative viability (IDH-C35 + Dasatinib; first compound 2.53 µM)?
Its relative viability is 0.964.

And the relative viability (IDH-C35 + Dasatinib; first compound 8 µM)?
Its relative viability is 0.761.

Which relative viability ([1]; first compound 0.0025 µM) does the source give for SK-LU-1 here?
The relative viability was 1.15.

And the relative viability ([1]; first compound 0.007906 µM)?
Its relative viability is 0.752.

What about the relative viability ([1]; first compound 0.025 µM) of the same cell line?
Its relative viability is 0.425.

And the relative viability ([1]; first compound 0.07906 µM)?
Its relative viability is 0.789.

And the relative viability ([1]; first compound 0.25 µM)?
Its relative viability is 0.541.

What about the relative viability ([2]; first compound 0.0025 µM) of the same cell line?
Its relative viability is 0.524.

And the relative viability ([2]; first compound 0.007906 µM)?
The relative viability was 0.475.

And the relative viability ([2]; first compound 0.025 µM)?
Its relative viability is 0.448.

And the relative viability ([2]; first compound 0.07906 µM)?
The relative viability was 0.561.

What about the relative viability ([2]; first compound 0.25 µM) of the same cell line?
The relative viability was 0.618.

And the relative viability (IDH-C35 + Luminespib; first compound 0.08 µM)?
Its relative viability is 0.219.

What about the relative viability (IDH-C35 + Luminespib; first compound 0.253 µM) of the same cell line?
Its relative viability is 0.207.

And the relative viability (IDH-C35 + Luminespib; first compound 0.8 µM)?
Its relative viability is 0.188.

And the relative viability (IDH-C35 + Luminespib; first compound 2.53 µM)?
The relative viability was 0.225.

And the relative viability (IDH-C35 + Luminespib; first compound 8 µM)?
The relative viability was 0.259.

And the relative viability (IDH-C35 + Dasatinib; first compound 0.08 µM)?
The relative viability was 0.188.

What about the relative viability (IDH-C35 + Dasatinib; first compound 0.253 µM) of the same cell line?
The relative viability was 0.181.

And the relative viability (IDH-C35 + Dasatinib; first compound 0.8 µM)?
The relative viability was 0.172.

And the relative viability (IDH-C35 + Dasatinib; first compound 2.53 µM)?
The relative viability was 0.177.

And the relative viability (IDH-C35 + Dasatinib; first compound 8 µM)?
Its relative viability is 0.191.

SW 1573 was tested. Which relative viability ([1]; first compound 0.0025 µM) did it give?
Its relative viability is 1.09.

And the relative viability ([1]; first compound 0.007906 µM)?
The relative viability was 1.13.

What about the relative viability ([1]; first compound 0.025 µM) of the same cell line?
Its relative viability is 1.1.

And the relative viability ([1]; first compound 0.07906 µM)?
The relative viability was 1.07.

What about the relative viability ([1]; first compound 0.25 µM) of the same cell line?
The relative viability was 0.893.

What about the relative viability ([2]; first compound 0.0025 µM) of the same cell line?
The relative viability was 0.529.

And the relative viability ([2]; first compound 0.007906 µM)?
Its relative viability is 0.519.

What about the relative viability ([2]; first compound 0.025 µM) of the same cell line?
The relative viability was 0.634.

What about the relative viability ([2]; first compound 0.07906 µM) of the same cell line?
The relative viability was 0.534.

What about the relative viability ([2]; first compound 0.25 µM) of the same cell line?
The relative viability was 0.504.

What about the relative viability (IDH-C35 + Luminespib; first compound 0.08 µM) of the same cell line?
Its relative viability is 0.136.

And the relative viability (IDH-C35 + Luminespib; first compound 0.253 µM)?
The relative viability was 0.218.

And the relative viability (IDH-C35 + Luminespib; first compound 0.8 µM)?
Its relative viability is 0.257.

And the relative viability (IDH-C35 + Luminespib; first compound 2.53 µM)?
Its relative viability is 0.442.

And the relative viability (IDH-C35 + Luminespib; first compound 8 µM)?
The relative viability was 0.248.

And the relative viability (IDH-C35 + Dasatinib; first compound 0.08 µM)?
Its relative viability is 0.571.

And the relative viability (IDH-C35 + Dasatinib; first compound 0.253 µM)?
The relative viability was 0.545.

And the relative viability (IDH-C35 + Dasatinib; first compound 0.8 µM)?
Its relative viability is 0.545.

And the relative viability (IDH-C35 + Dasatinib; first compound 2.53 µM)?
Its relative viability is 0.549.

What about the relative viability (IDH-C35 + Dasatinib; first compound 8 µM) of the same cell line?
The relative viability was 0.38.
